Results published in patent US20210205236A1, “THERAPEUTIC COMBINATIONS OF BOSWELLIA EXTRACT AND CANNABINOIDS” (priority 2018, published 2021).
Like-named read-outs stand apart in the source and are kept apart here.

How the values were obtained:
CB1 receptor [1] = molecular target: T1, CB1 receptor (Homo sapiens, UniProt P21554); type: cell-based; conditions: THCA or THC alone, 10 μM
T1 construct: expressed in transfected cells

CB1 receptor [2] = molecular target: T1, CB1 receptor; assay: cell-based; type: cell-based; conditions: for Effect of cannabinoid on AKBA CB1R positive allosteric activity: AKBA 50 and 100 μM, THCA 10 μM or CBD 1 μM; for Experiment 1 % of activity / Experiment 2 % of activity / Experiment 3 % of activity: CP55940-induced activity = 100%; for Experiment 1 Fold change / Experiment 2 Fold change / Experiment 3 Fold change: Table 3 data re-expressed as fold change

T1 sequence (P21554 whole entry): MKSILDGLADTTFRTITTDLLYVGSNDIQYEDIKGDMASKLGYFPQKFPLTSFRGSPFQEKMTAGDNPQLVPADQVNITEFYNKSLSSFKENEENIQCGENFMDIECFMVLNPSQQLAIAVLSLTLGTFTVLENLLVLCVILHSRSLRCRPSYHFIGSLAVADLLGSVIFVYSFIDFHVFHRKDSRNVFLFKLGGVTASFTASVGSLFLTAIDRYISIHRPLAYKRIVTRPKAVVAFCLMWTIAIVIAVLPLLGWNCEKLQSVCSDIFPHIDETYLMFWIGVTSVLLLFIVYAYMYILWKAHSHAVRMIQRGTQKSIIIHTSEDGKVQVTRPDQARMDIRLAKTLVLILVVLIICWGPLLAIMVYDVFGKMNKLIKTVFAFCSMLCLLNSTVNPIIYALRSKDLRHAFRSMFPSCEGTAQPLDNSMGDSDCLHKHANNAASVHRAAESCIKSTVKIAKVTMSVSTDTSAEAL

In the case of `CCCCCc1cc2c(c(O)c1C(=O)O)[C@@H]1C=C(C)CC[C@H]1C(C)(C)O2` [THCA, tetrahydrocannabinolic acid], the “Conclusions: Is CB1R agonist effect observed?” value (CB1 receptor [1]) is reported as “Negative (Only treatments that the mean of three consecutive independent experiments shows a positive result: CB1R activity ≥ 2.5-fold increase or ≥ 4-fold increase are considered CB1R agonists or CB1R positive allosteric modulators)”, the “Experiment 1 Fold change” value (CB1 receptor [1]) is reported as 1.2 Fold change and the “Experiment 2 Fold change” value (CB1 receptor [1]) is reported as 1.1 Fold change. The “Experiment 3 Fold change” value (CB1 receptor [1]) was 0.8 Fold change, the “Effect of cannabinoid on AKBA CB1R positive allosteric activity” value (CB1 receptor [2]) was “reduced the AKBA allosteric activity” and the “Conclusions: Is CB1R antagonist effect observed?” value (CB1 receptor [2]; THCA or THC 10 μM without AKBA, % of activity data) was “Negative (Only treatments that the mean of three consecutive independent experiments show a positive result (CB1R activity ≤ 50%) are considered antagonists of CB1R activity)”. For the same compound, the “Experiment 1 % of activity” value (CB1 receptor [2]; THCA or THC 10 μM without AKBA) was 163.2%, the “Experiment 2 % of activity” value (CB1 receptor [2]; THCA or THC 10 μM without AKBA) was 118.4% and the “Experiment 3 % of activity” value (CB1 receptor [2]; THCA or THC 10 μM without AKBA) was 86.5%. The “Experiment 1 Fold change” value (CB1 receptor [2]; THCA or THC 10 μM without AKBA) was 4.1 Fold change, the “Experiment 2 Fold change” value (CB1 receptor [2]; THCA or THC 10 μM without AKBA) was 3.0 Fold change and the “Experiment 3 Fold change” value (CB1 receptor [2]; THCA or THC 10 μM without AKBA) was 2.2 Fold change. For the same compound, the “Conclusions: Is CB1R antagonist effect observed?” value (CB1 receptor [2]; THCA or THC 10 μM without AKBA, positive allosteric activity, fold change data) was “Negative (Only treatments that the mean of three consecutive independent experiments show a positive result (CB1R activity ≥ 4-fold change) are considered positive CB1R allosteric agonists)”.

With `C=C(C)[C@@H]1CCC(C)=C[C@H]1c1c(O)cc(CCCCC)cc1O` [CBD, cannabidiol, reference compound] the “Effect of cannabinoid on AKBA CB1R positive allosteric activity” value (CB1 receptor [2]) was “almost abolished”, the “Conclusions: Is CB1R antagonist effect observed?” value (CB1 receptor [2]; CBD 1 μM without AKBA, % of activity data) was “+ (A reduction of the percentage below 50% indicates CB1R antagonistic activity)” and the “Experiment 1 % of activity” value (CB1 receptor [2]; CBD 1 μM without AKBA) was 66.2%. The “Experiment 2 % of activity” value (CB1 receptor [2]; CBD 1 μM without AKBA) was 70.7%, the “Experiment 3 % of activity” value (CB1 receptor [2]; CBD 1 μM without AKBA) was 69.5% and the “Experiment 1 Fold change” value (CB1 receptor [2]; CBD 1 μM without AKBA) was 1.7 Fold change. For the same compound, the “Experiment 2 Fold change” value (CB1 receptor [2]; CBD 1 μM without AKBA) was 1.8 Fold change, the “Experiment 3 Fold change” value (CB1 receptor [2]; CBD 1 μM without AKBA) was 1.7 Fold change and the “Conclusions: Is CB1R antagonist effect observed?” value (CB1 receptor [2]; CBD 1 μM without AKBA, positive allosteric activity, fold change data) was “Negative (Only treatments that the mean of three consecutive independent experiments show a positive result (CB1R activity ≥ 4-fold change) are considered positive CB1R allosteric agonists)”.
